# Laboratory results from US7459277B2, “Mammalian T1R3 sweet taste receptors” (The Regents of the University of California, priority 2003, dated 2008).
# Residues, ends and D or L forms follow the SMILES beside them.
# T1: mouse T1R3 GPCR (Mus musculus, UniProt Q925D8)
# T1 construct: expressed in transfected cells
# T1 sequence (Q925D8 21-858): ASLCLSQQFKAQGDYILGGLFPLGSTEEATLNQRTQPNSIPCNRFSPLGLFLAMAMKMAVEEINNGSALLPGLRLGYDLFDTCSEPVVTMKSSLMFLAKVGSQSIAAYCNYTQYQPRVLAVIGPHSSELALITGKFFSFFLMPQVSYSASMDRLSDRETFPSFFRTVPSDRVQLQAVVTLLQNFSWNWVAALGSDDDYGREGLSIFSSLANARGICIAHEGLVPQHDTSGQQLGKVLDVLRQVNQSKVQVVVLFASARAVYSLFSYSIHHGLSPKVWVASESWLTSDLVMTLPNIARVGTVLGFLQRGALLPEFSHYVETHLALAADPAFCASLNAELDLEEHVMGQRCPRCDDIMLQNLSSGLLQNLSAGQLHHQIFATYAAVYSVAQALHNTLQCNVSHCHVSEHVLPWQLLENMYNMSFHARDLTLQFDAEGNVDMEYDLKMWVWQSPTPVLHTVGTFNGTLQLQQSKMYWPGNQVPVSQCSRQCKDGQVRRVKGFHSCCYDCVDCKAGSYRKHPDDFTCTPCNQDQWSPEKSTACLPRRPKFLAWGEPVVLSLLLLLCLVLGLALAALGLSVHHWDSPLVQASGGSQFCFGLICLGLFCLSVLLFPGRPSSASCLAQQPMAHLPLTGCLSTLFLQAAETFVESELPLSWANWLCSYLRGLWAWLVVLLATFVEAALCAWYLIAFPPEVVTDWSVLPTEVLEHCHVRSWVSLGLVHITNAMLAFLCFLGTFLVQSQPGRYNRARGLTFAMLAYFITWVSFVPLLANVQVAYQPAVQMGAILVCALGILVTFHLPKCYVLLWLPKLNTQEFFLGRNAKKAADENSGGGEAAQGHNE
# T2: T1R2+3 (Mus musculus, UniProt Q925D8+Q925I4)
# T2 construct: expressed in transfected cells; host or cells: modified HEK-293 cells (PEAKrapid)
# T2 sequence (Q925I4 20-843): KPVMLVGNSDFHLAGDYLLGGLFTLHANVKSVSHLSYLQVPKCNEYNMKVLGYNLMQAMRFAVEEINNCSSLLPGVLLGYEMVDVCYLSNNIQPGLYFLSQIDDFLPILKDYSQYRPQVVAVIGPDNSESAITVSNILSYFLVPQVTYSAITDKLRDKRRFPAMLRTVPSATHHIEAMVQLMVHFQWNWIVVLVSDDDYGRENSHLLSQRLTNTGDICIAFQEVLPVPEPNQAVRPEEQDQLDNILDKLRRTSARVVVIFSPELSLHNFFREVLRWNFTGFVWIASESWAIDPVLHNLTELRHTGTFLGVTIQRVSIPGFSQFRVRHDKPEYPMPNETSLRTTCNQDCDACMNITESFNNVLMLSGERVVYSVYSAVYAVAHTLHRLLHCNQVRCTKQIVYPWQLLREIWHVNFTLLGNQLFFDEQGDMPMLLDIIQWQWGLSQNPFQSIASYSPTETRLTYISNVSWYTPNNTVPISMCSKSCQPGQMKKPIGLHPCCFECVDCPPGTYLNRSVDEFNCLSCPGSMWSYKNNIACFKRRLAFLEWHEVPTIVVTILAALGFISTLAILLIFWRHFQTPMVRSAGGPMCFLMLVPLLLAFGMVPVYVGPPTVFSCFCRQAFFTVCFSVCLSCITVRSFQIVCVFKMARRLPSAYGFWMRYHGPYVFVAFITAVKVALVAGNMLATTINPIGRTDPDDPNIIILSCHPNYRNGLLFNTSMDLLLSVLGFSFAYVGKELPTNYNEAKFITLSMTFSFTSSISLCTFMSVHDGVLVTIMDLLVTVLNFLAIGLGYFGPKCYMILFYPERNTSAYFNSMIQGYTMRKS
# T2 sequence (Q925D8 21-858): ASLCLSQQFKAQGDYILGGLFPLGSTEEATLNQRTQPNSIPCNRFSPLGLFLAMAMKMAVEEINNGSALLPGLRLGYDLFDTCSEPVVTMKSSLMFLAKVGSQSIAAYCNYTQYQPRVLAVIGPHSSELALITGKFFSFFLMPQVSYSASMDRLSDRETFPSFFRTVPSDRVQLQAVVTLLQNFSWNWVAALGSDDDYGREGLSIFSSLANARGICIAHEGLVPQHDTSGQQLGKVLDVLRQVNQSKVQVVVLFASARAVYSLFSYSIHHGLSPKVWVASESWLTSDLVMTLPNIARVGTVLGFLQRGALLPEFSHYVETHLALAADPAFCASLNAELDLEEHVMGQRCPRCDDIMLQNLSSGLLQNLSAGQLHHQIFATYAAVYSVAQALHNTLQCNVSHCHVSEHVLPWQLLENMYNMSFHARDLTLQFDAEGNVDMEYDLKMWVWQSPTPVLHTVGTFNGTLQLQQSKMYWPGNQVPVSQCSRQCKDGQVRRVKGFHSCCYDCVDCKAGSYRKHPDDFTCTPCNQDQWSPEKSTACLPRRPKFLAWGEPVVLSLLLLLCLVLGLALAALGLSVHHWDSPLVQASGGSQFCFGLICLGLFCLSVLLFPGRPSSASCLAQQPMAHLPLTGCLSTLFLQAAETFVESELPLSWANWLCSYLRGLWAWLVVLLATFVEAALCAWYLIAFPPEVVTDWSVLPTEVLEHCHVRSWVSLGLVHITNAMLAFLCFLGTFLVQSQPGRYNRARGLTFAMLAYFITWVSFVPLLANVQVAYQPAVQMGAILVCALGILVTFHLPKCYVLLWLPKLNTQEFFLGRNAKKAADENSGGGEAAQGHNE
# Legend:
# T1R knockout mice [1] = assay: Brief access taste test (lick rate relative to control) in wild-type and T1R knockout mice; type: in vivo, mouse; details: for behavioral responses, effect of T1R knockouts: T1R1, T1R2, T1R3 knockout versus wild-type
# Description: Two complementary strategies were used to assay the taste responses of the genetically modified mice. First, we recorded tastant-induced action potentials from one of the major nerves innervating taste receptor cells of the tongue (chorda tympani). This physiological assay monitors the activity of the taste system at the periphery, and provides a measure of taste receptor cell function. Second, we examined taste behavior by measuring taste-choices in standard long-term two-bottle intake preference assays, or by direct counting of immediate licking responses in a multi-channel gustometer (Glendinning, J. I. et al., Chem Senses, 27, 461-474 (2002); Zhang, Y. et al., Cell, 112, 293-301 (2003); see Experimental Procedures). This second method relies on very short exposures to tastants (5 s events over a total of 30 min versus 48 hrs for two-bottle preference assays), and therefore has the great advantage of minimizing the impact of other sensory inputs, and post-ingestive and learning effects from the assay.
# Taste behavior was assayed using a short term assay that directly measures taste preferences by counting immediate licking responses in a multi-channel gustometer (Davis MS160-Mouse gustometer; DiLog Instruments, Tallahassee, Fla.). Mice were trained and tested as described previously (Zhang, Y. et al., Cell, 112, 293-301 (2003)). Individual mice were placed in the gustometer for 30 minutes, and stimuli were presented in random order for 5 s trials that were initiated by the mouse licking the stimulus spout. […] Data points represent the mean rate that mice licked a tastant relative to their sampling of an appropriate control tastant (ratio defined as lick rate relative to control); lick suppression is defined as 1 minus the lick rate relative to control.
# T1R knockout mice [2] = assay: Chorda tympani nerve recordings in wild-type and T1R knockout mice; type: in vivo, mouse; details: for physiological responses, effect of T1R knockouts: T1R1, T1R2, T1R3 knockout versus wild-type; for neural responses (chorda tympani): wild-type, T1R1, T1R2 and T1R3 knockout mice, 100 mM citric acid, 100 mM NaCl, 10 mM PROP; for physiological (nerve) responses: T1R3 KO mice, salt effects minimized
# T1R1+3 = details: cited from earlier work; for activation of T1R1+3: psychophysically relevant concentrations
# HEK-293 cells = assay: Ca-imaging, receptor independent rises in [Ca2+]i; type: cell-based, human; details: high concentrations of sugar
# Description: Modified HEK-293 cells (PEAK^rapid cells; Edge BioSystems, Md.) were grown, transfected with […] and promiscuous G-proteins and assayed for functional responses to tastants by Ca-imaging essentially as described previously (Nelson, G. et al., Cell, 106, 381-390 (2001)). Minor differences in FURA-2 loading and Ca-imaging included using 199(H) Medium (Biosource) containing 0.1% BSA, 100 μM EGTA and 200 μM CaCl2 as assay buffer as well as reducing the time allowed for FURA-AM ester cleavage to 10 minutes. The imaging system was an Olympus IX50 microscope equipped with a 10×/0.5 N.A. fluor objective (Zeiss), the TILL imaging system (TILL Photonics GmbH), and a cooled CCD camera. Acquisition and analysis of fluorescence images used TILL-Vision software. To optimize coupling of […]-responses to changes in [Ca^2+]i, C-terminal residues of human Gα16 (Offermanns, S., and Simon, M. I., J Biol Chem, 270, 15175-15180 (1995)) were replaced with the corresponding residues from Gz (Mody, S. M. et al., Mol Pharmacol, 57, 13-23 (2000)), gustducin (McLaughlin, S. K. et al., Nature, 357, 563-569 (1992)) or Gαi2. […] Cell lines stably expressing T1R3 and Ggust-25 were established using puromycin and Zeocin (Invitrogen) selection. Three independent lines expressing T1R3 and Ggust-25 were used to examine the specificity and dose response of the T1R3 receptor.
# mouse T1R3 GPCR = molecular target: T1, mouse T1R3 GPCR; assay: Ca-imaging of HEK-293 cells expressing T1R3 and Ggust-25; type: cell-based; details: for T1R3 and Ggust-25 dependent responses: >300 mM, three independent stable lines
# T1R2+3 = molecular target: T2, T1R2+3; assay: Ca-imaging of HEK-293 cells co-transfected with T1R2 plus T1R3 and Ggust-25; type: cell-based; details: control cells expressing T1R2+3
# [3] = system: T1R2 KO mice expressing a human T1R2 gene; assay: Behavioral taste responses of mice expressing a human T1R2 transgene; type: in vivo, mouse; details: for behavioral response to human sweet tastants: humanized T1R2 mice (T1R2 KO + hT1R2 transgene), monellin ~10 uM, thaumatin ~5 uM, aspartame 10 mM, glycyrrhizic acid 500 uM, neohesperidin dihydrochalcone 400 uM
# humans = details: sub-millimolar concentrations; cited from earlier work
# rodents = details: 100 times higher concentrations than sweet to humans; cited from earlier work
# [4] = T1R1 and T1R3 knockout animals, L-Asp 100 mM, AP4 30 mM
# [5] = T1R3 KO mice, salt effects minimized
molecule,measurement,setting,value
N[C@@H](CO)C(=O)O [Ser],behavioral attraction,"T1R knockout mice [1]; T1R1 KO animals, >300 mM",small residual attraction
O=C(O)CC(O)(CC(=O)O)C(=O)O [citric acid],"behavioral responses, effect of T1R knockouts",T1R knockout mice [1],no significant effect
same,"physiological responses, effect of T1R knockouts",T1R knockout mice [2],no significant effect
same,neural responses (chorda tympani),T1R knockout mice [2],robust neural responses
"N[C@@H](CC(=O)O)C(=O)O [L-Asp, aspartic acid]",taste preference relative to water,T1R knockout mice [1]; [4],complete loss in preference
same,behavioral attraction,T1R knockout mice [1]; [5],dramatic loss of behavioral attraction
same,physiological (nerve) responses,T1R knockout mice [2],profound corresponding deficit in physiological responses
same,activation of T1R1+3,T1R1+3,activated
OC[C@H]1O[C@H](O[C@H]2O[C@H](CO)[C@@H](O)[C@H](O)[C@H]2O)[C@H](O)[C@@H](O)[C@@H]1O [trehalose],receptor independent rises in [Ca2+]i,HEK-293 cells,significant receptor independent rises in [Ca^2+]i
N[C@@H](CCC(=O)O)C(=O)O [glutamate],behavioral attraction,T1R knockout mice [1]; [5],dramatic loss of behavioral attraction
same,physiological (nerve) responses,T1R knockout mice [2],profound corresponding deficit in physiological responses
"N[C@@H](CCC(=O)O)C(=O)[O-].[Na+] [MSG, monosodium glutamate]",taste preference relative to water,T1R knockout mice [1]; [4],complete loss in preference
same,integrated chorda tympani response,"T1R knockout mice [2]; T1R1 and T1R3 knockouts, high concentration of salt (100 mM MSG)",residual responses are detected
OC[C@H]1O[C@H](O[C@H]2[C@H](O)[C@@H](O)C(O)O[C@@H]2CO)[C@H](O)[C@@H](O)[C@@H]1O (mixture of isomers) [maltose],T1R3 and Ggust-25 dependent responses,mouse T1R3 GPCR,dose dependent responses
same,taste preference relative to water,T1R knockout mice [1]; T1R2 and T1R3 knockout animals,residual responses
O=C(CO)[C@@H](O)[C@H](O)[C@H](O)CO [fructose],receptor independent rises in [Ca2+]i,HEK-293 cells,significant receptor independent rises in [Ca^2+]i
NC(CCP(=O)(O)O)C(=O)O (stereo not shown) [AP4],taste preference relative to water,T1R knockout mice [1]; [4],complete loss in preference
same,activation of T1R1+3,T1R1+3,activated
"CCCc1cc(=O)[nH]c(=S)[nH]1 [PROP, 6-n-propyl-thiouracil]",neural responses (chorda tympani),T1R knockout mice [2],robust neural responses
O=C1NS(=O)(=O)c2ccccc21 [saccharin],[Ca2+]i response,mouse T1R3 GPCR; 300 mM saccharin,No responses were detected
same,[Ca2+]i response,T1R2+3; 30 mM saccharin,respond robustly
C[C@@H](O)[C@H](N)C(=O)O [Thr],behavioral attraction,"T1R knockout mice [1]; T1R1 KO animals, >300 mM",small residual attraction
C[C@H](N)C(=O)O [Ala],behavioral attraction,"T1R knockout mice [1]; T1R1 KO animals, >300 mM",small residual attraction
Nc1nc2c(ncn2[C@@H]2O[C@H](COP(=O)(O)O)[C@@H](O)[C@H]2O)c(=O)[nH]1 [GMP],enhancement of T1R1+3 activity,T1R1+3,reliably enhanced
COC(=O)[C@H](Cc1ccccc1)NC(=O)[C@@H](N)CC(=O)O [aspartame] (H-Asp-Phe-OMe),behavioral attraction,"[3]; 10 mM, three independent human T1R2 transgenic lines",displayed behavioral attraction
same,behavioral response to human sweet tastants,[3],ability to detect and respond
same,sweet taste to humans,humans,taste sweet
same,preference in rodents,rodents,no preference
"[Cl-].[Na+] [NaCl, sodium chloride]","behavioral responses, effect of T1R knockouts",T1R knockout mice [1],no significant effect
same,"physiological responses, effect of T1R knockouts",T1R knockout mice [2],no significant effect
same,neural responses (chorda tympani),T1R knockout mice [2],robust neural responses
OC[C@H]1O[C@@](CO)(O[C@H]2O[C@H](CO)[C@@H](O)[C@H](O)[C@H]2O)[C@@H](O)[C@@H]1O [sucrose],increases in [Ca2+]i (FURA-2),mouse T1R3 GPCR; 500 mM sucrose,increases in [Ca^2+]i
same,T1R3 and Ggust-25 dependent responses,mouse T1R3 GPCR,dose dependent responses
same,[Ca2+]i response,T1R2+3; 300 mM sucrose,respond robustly
same,taste preference relative to water,T1R knockout mice [1]; T1R2 and T1R3 knockout animals,residual responses
O=C[C@H](O)[C@@H](O)[C@@H](O)[C@H](O)CO [galactose],receptor independent rises in [Ca2+]i,HEK-293 cells,significant receptor independent rises in [Ca^2+]i
CC1(C)[C@@H](O[C@H]2O[C@H](C(=O)O)[C@@H](O)[C@H](O)[C@H]2O[C@@H]2O[C@H](C(=O)O)[C@@H](O)[C@H](O)[C@H]2O)CC[C@]2(C)[C@H]3C(=O)C=C4[C@@H]5C[C@@](C)(C(=O)O)CC[C@]5(C)CC[C@@]4(C)[C@]3(C)CC[C@@H]12 [glycyrrhizic acid],behavioral response to human sweet tastants,[3],ability to detect and respond
"monellin (protein, sweet protein) chain 1: FREIKGYEYQLYVYASDKLFRADISEDYKTRGRKLLRFNGPVPPP chain 2: GEWEIIDIGPFTQNLGKFAVDEENKIGQYGRLTFNKVIRPCMKKTIYEEN",behavioral response to human sweet tastants,[3],ability to detect and respond
same,sweet taste to humans,humans,taste sweet
same,preference in rodents,rodents,no preference
"thaumatin (protein, sweet protein) ATFEIVNRCSYTVWAAASKGDAALDAGGRQLNSGESWTINVEPGTNGGKIWARTDCYFDDSGSGICKTGDCGGLLRCKRFGRPPTTLAEFSLNQYGKDYIDISNIKGFNVPMDFSPTTRGCRGVRCAADIVGQCPAKLKAPGGGCNDACTVFQTSEYCCTTGKCGPTEYSRFFKRLCPDAFSYVLDKPTTVTCPGSSNYRVTFCPTA",behavioral response to human sweet tastants,[3],ability to detect and respond
same,sweet taste to humans,humans,taste sweet
same,preference in rodents,rodents,no preference
